Here are results for four compounds from publication PMC9841589, “Identification of 2-Aminoacyl-1,3,4-thiadiazoles as Prostaglandin E2 and Leukotriene Biosynthesis Inhibitors” (ACS Medicinal Chemistry Letters, 2022).

The target of assay [1] is T1, Human recombinant sEH (Homo sapiens, UniProt P34913).
T1 construct: made in house; host or cells: Sf9 cells infected with a baculovirus provided by Dr. B. Hammock
T1 sequence (P34913 1-555): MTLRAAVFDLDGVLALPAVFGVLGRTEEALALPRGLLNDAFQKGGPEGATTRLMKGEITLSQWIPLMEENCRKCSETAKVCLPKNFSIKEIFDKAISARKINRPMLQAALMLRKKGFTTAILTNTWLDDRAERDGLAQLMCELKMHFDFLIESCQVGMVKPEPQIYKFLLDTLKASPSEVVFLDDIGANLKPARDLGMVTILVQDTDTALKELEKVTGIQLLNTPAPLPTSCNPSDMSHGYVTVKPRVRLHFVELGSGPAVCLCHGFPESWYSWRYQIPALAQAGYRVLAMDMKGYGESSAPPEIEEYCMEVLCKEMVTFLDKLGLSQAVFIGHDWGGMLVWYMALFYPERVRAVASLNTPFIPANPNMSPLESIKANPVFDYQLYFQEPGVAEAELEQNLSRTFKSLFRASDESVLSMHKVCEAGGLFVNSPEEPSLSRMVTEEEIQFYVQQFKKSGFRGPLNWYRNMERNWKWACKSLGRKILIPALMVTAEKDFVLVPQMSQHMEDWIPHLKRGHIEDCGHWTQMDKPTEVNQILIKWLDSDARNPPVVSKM
The assay is described as follows: Activity assay of human recombinant sEH. To be noted: percentage of uninhibited control (100%), n = 3, n.i.: no inhibitory activity observed, read-out: sEH residual activity (%). It counts as biochemical. How it is done: 8) plus 5 mM glutathione, 100 µM EDTA and 5 µM hemoglobin) to a final concentration of 50 U/mL for COX-1 and 20 U/mL for COX-2, and pre-incubated with test compounds 3, 6, 7, and 9 (10 µM) or vehicle (0.1% DMSO) over 5 min at rt. After 1 min at 37 °C, reactions were started after addition of arachidonic acid to a final concentration of 5 µM for COX-1 and 2 µM for COX-2. After 5 min at 37 °C, 1 mL of ice-cold methanol was added for stopping the reactions on ice. Then, PGB 1 as internal standard and 530 µl PBS plus HCl were added, and solid-phase extraction was performed as reported before.4-6, 17-19 COXs product formation (12-HHT) was determined using RP-HPLC. 4-6, 17-19 Indomethacin (10 µM) and celecoxib (5 µM) were used as reference drugs.
Expression, purification and activity assay of human recombinant sEH
Human recombinant sEH was expressed in Sf9 cells and was infected using a baculovirus, provided by Dr. B. Hammock, University of California, Davis, CA. After 72 hours, cells were pelleted and sonicated (3 × 10 sec) at 4 °C in lysis buffer (50 mM NaHPO 4, pH = 8, 300 mM NaCl, 10% glycerol, 1 mM EDTA, 1 mM phenylmethanesulfonyl fluoride, 10 µg/mL of leupeptin, and 60 µg/mL of soybean trypsin inhibitor). Lysates were centrifuged over 60 min at 4 °C (100,000 × g), and supernatants were collected and submitted to a benzylthio-sepharose-affinity chromatography for sEH purification by elution with 4-fluorochalcone oxide in PBS plus 1 mM DTT and 1 mM EDTA.720 Bio-Rad protein detection kit (Bio-Rad Laboratories, Munich, Germany) was used for total protein on dialyzed and concentrated (Millipore Amicon-Ultra-15 centrifugal filter) enzyme solution and a fluorescence-based assay was used to define the epoxide hydrolase activity. 5,618, 19 Then, sEH was diluted in Tris buffer (25 mM, pH = 7) supplemented with 0.1 mg/mL of BSA to an appropriate enzyme concentration and pre-incubated with test compounds 3, 6, 7, 9 (10 µM) or vehicle (0.1% DMSO) for 15 min at rt. 50 µM 3-phenyl-cyano(6-methoxy-2-naphthalenyl)methyl ester-2-oxiraneacetic acid (PHOME), a non-fluorescent compound, was added for starting the reaction.
PHOME is enzymatically converted into a fluorescent compound, 6-methoxy-naphtaldehyde, detectable by using a spectrofluorometer setting λ em = 465 nm, λ ex = 330 nm. After 60 min, ZnSO 4 […]
(200 mM) was added for stopping the reaction, and then fluorescence was detected. AUDA (12-(3-adamantan-1-yl-ureido)-dodecanoic acid) (100 nM) was used as reference drug.
Human neutrophils and monocytes were freshly isolated from leukocyte concentrates obtained from the Institute of Transfusion Medicine, University Hospital Jena. […]

Assay [2] relates to LPS-stimulated J774A.1 macrophages. The assay is described as follows: Determination of IL-6 and PGE2 in murine macrophages. Format: cell-based, mouse. To be noted: J774A.1, LPS 10 μg/mL, compound 1 μM, 24 h.
Procedure: LOX product analysis, using an MRM method with diagnostic ion fragments and identification, was performed as described previously.922 Determination of IL-6 and PGE2 in murine macrophages Mouse macrophage cell line (J774A.1, ATCC® TIB-67™) was cultured in DMEM supplemented with FBS (ATCC® 30-2020™) to a final concentration of 10%. Cells were seeded in petri culture (100 × 20 mm, Falcon ®) at a density of 5 × 10^5 cells per dish and allowed to grow for dishes 24 h. The medium was then replaced, and cells were treated with LPS (10 ) in the presence or absence of μg/ml compounds 3, 6, 7, 9 (1 µM). Following incubations of 24 h, cells were collected with a cell scraper and, after centrifugation at 14000 × g for 10 min at 4 °C, the supernatant was collected and stored at −80°C for ELISA analysis 1023.

As to `O=C(Nc1nnc(-c2ccc(-c3cccc(O)c3)cc2)s1)c1ccccc1Br` [compound 3], the remaining activity at 10 µM in assay [1] is 96%. In assay [2], the IL-6 production entry was “able to modulate” and the PGE2 production result was “able to modulate”. Consider `Cc1cc(C(=O)Nc2nnc(-c3ccc(-c4ccccc4N)cc3)s2)cc(Cl)n1` [compound 6], for which the remaining activity at 10 µM in assay [1] is 67.7%. As for `Nc1ccccc1-c1ccc(-c2nnc(NC(=O)c3ccccc3Br)s2)cc1` [compound 7], in assay [1], the remaining activity at 10 µM was 164%. Moreover, in assay [2], the PGE2 production entry is “displayed a similar activity only in terms of PGE2 modulation”. On to `Nc1ccccc1-c1ccc(-c2nnc(NC(=O)c3c(Cl)ccnc3Cl)s2)cc1` [compound 9], for which, in assay [1], the remaining activity at 10 µM turned out to be 83.9%.
